These compounds were tested against T1, Phosphatidylcholine-sterol acyltransferase (Homo sapiens, UniProt P04180) (assay: Enzyme Assay). Settings: pH 7.5; 4 °C.
T1 sequence (P04180 whole entry): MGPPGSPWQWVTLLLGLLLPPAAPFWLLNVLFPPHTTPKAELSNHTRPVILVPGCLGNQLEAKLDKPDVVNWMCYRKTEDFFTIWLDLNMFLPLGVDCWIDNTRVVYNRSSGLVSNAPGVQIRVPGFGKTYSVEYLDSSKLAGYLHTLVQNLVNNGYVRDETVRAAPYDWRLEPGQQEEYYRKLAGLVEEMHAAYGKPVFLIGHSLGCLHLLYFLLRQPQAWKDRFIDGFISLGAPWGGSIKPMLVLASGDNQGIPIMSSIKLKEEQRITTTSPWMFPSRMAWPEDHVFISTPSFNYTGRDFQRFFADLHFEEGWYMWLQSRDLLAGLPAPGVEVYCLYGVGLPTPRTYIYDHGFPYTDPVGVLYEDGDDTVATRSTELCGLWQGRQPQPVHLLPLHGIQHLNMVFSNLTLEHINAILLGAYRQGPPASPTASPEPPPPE
Method: The phospholipase A2 activity of LCAT was assayed using lecithin and apoA-I containing [9,10-3H] dipalmitoylphosphatidylcholine (DPPC) and measurement of the radioactive fatty acid released from the sn-2-position.

**Q.** With `CCCCCCCC(=O)C(F)(F)CCOP(=O)([O-])OCC[N+](C)(C)C` [Difluoroketone phospholipid analogue, 1] as the compound, how does the IC50 read?
**A.** The IC50 was > 500 nM.

**Q.** For `CCCCCCCCCCCCCCCCC(=O)C(F)(F)C(COCCCCCCCC)COP(=O)([O-])OCC[N+](C)(C)C` (centres undefined) [Difluoroketone phospholipid analogue, 3], which IC50 is on record?
**A.** The IC50 was 28 nM.

**Q.** Which IC50 does the source give for `CCCCCCCCOCC(COP(=O)([O-])OCC[N+](C)(C)C)C(F)(F)C(=O)CCCCCCC` (centres undefined) [Difluoroketone phospholipid analogue, 2] here?
**A.** Its IC50 is 60 nM.

**Q.** For `CCCCCCCC(=O)OCC(COP(=O)([O-])OCC[N+](C)(C)C)CC(=O)C(F)(F)CCCCCC` (centres undefined) [Difluoroketone phospholipid analogue, 4], which IC50 is on record?
**A.** Its IC50 is 60 nM.

— BindingDB's records for doi:10.7270/Q2M0441T (Dalhousie University, 1989)
